Assay results from patent publication US20060089263A1, “2-Propenal and related enal compounds for controlling plant pests and weeds in soil” (priority 2004, published 2006).

Legend:
Format in all cases: in vivo
[1] = tested on: reniform nematode (Rotylenchulus reniformis); experiment: Greenhouse nematicidal experiment, soil infested with reniform nematode; conditions: pre-plant samples
Source text: (§1) The nematicidal properties of 2-propenal (CH2═CH—CHO; acrolein), 2-butenal (CH3—CH═CH—CHO; crotonaldehyde), and trans 2-pentenal (CH3—CH2—CH═CH—CHO) were studied in greenhouse experiments with soil severely infected with the reniform nematode (Rotylenchulus reniformis). The soil was collected from a cotton field and was a sandy loam with pH 6.2, organic matter content <1.0% and cation exchange capacity <10 meq/100 gms soil. The soil was mixed 50:50 by volume, with washed fine siliceous river sand and the mixture, here-from referred to as soil. The moist soil (50% field capacity) was apportioned in 1 Kg quantities contained in 4L polyethylene bags. The compounds were applied to the soil in the bags, and after thorough mixing the treated soil was transferred to 1 L capacity, 4-inch-diam. plastic (PVC) pots which were then covered with a polyethylene bag (1 mil) held tightly to the outside wall of the pot with a rubber band. The covered pots were placed on a greenhouse table and after 10 days the bags were removed and soil samples for nematode analyses were collected from each pot. The pots were planted with “Young” soybean (5 seed/pot.) Soybean plants were grown for 8 weeks when they were removed, soil samples taken for nematode analysis (salad bowl incubation technique), and data were collected on shoot height, and fresh weights of shoots and roots. The relative health of the root systems was determined using a subjective scale. […] Values between 1 and 5 represented intermediate degrees of damage. The roots were incubated to assess nematode populations in them.
(§2) Emulsifiable concentrates (EC's) were prepared for all three compounds containing 10% (w/w) emulsogen. The EC's were used to make aqueous emulsions containing 2.5% active ingredient; these emulsions were then used to deliver the compounds to soil. Each compound was delivered using the following rates: 0, 25, 50, 75, 100, 125, 150, 175, 200, 225, 250, 275, 300 mgs/kg soil. In every experiment there were 6 replications (pots) per treatment arranged in a randomized complete block design.
(§3) All data were analyzed according to standard procedures for analysis of variance. Fisher's Least Significant Differences (FLSD) were calculated when F values were significant and are included in the graphs. Curvilineal analyses were conducted according to standard procedures with the TableCurve 2D program.

[2] = tested on: microbivorous nematodes; experiment: Greenhouse nematicidal experiment, microbivorous nematodes in soil and roots
Source text: as §1, §2, §3

[3] = tested on: "Young" soybean; experiment: Growth response of soybean plants in treated soil (greenhouse)
Source text: as §1, §2, §3

[4] = tested on: yellow nutsedge (Cyperus esculentus); experiment: Greenhouse herbicidal experiment, post-emergence; conditions: applied post-emergence
Description: Herbicidal properties of the compounds were studied as described for experiments on nematicidal activities. The soil was from a cotton field with a silt loam soil from a cotton field with similar properties as the one used for the nematode experiments. It was infested with a variety of weeds and was artificially seeded with 5 yellow nutsedge tubercles/pot. Nutsedge plants and other weeds were grown for a month, and the pots were then treated with 2-propenal and covered with polyethylene bags for 10 days, when the bags were removed and weed counts taken at two weeks and one month after treatment. Rates used in these experiments were: 0, 100, 200, 300, 400, 500, 600, 700, and 800 mgs/kg soil.
as §3

[5] = tested on: tomato plant; experiment: Tomato plant growth study, vigor rating; parameters: key to TOMATO VIGOR 1-5SCALE: 1 = very little vigor, 5 = very vigorous
Source text: This example together with the data in Table 1 includes results of a study conducted to test the affects of acrolein on tomato plant growth. The first column in Table 1 includes, from left to right the treatment number, the treatment name, the rate of application, and the unit for that rate. The treatment name includes two separate treatment ingredients for each treatment number. The top name of each treatment name lists the test additive, and the bottom listing of the treatment name lists any additional herbicide applied in that particular treatment number. For example, in treatment number 5, methyl bromide was applied with a sandea herbicide. The rate and the rate unit headings, for this study, lists the amount of application of the treatment ingredients in pounds of active ingredients per acre (lb ai/a). Column 2 of Table 1 lists a vigor rating for each tomato plant on a scale of 1 to 5, wherein a 1 rating indicates a tomato plant with very little vigor, and a 5 rating indicates a very vigorous tomato plant. Column 2 lists vigor scale ratings for each treatment number taken on Aug. 17, 2005, and column 3 lists a vigor rating for each treatment taken on Aug. 25, 2005.

2-propenal
populations of reniform nematodes in pre-plant samples ([1]; 0-300 mgs/kg soil): reduced exponentially
reduction in populations of reniform nematodes ([1]; 50 mgs/kg soil equivalent to 100 lbs/A): > 90%
populations of microbivorous nematodes in pre-plant samples ([2]; 0-300 mgs/kg soil, pre-plant samples): reduced exponentially
microbivorous populations at the end of the experiment ([2]; 75 mg rate): stimulated
reduction in populations of microbivorous nematodes ([2]; 50 mgs/kg soil equivalent to 100 lbs/A, pre-plant samples): > 90%
microbivorous populations at the end of the experiment ([2]; applications of ≦100 mgs/kg soil, soil and root samples): recovered
shoot height ([3]; dosages above 50 mgs): gradual decline
shoot weights ([3]; dosages above 50 mgs): gradual decline
root weights ([3]; dosages higher than 175 mgs): declined
shoot height ([3]; dosages ≦50 mgs): Sharp increases
shoot weights ([3]; dosages ≦50 mgs): Sharp increases
root weights ([3]; rates up to 175 mgs): increased gradually
root condition ([3]; subjective scale 1 to 5, rates 25-300 mgs/kg soil): improved by all but the highest dose
doses resulting in practical elimination of the weed [4]: ≥ 200 mgs/kgs soil
TOMATO VIGOR 1-5SCALE ([5]; 17/Aug/05, DRIP 200 lb ai/a, no herbicide): 3.000
TOMATO VIGOR 1-5SCALE ([5]; 17/Aug/05, DRIP 200 lb ai/a, with SANDEA 0.25 lb ai/a): 3.000
TOMATO VIGOR 1-5SCALE ([5]; 17/Aug/05, DRIP 200 lb ai/a, with V-10142 0.25 lb ai/a): 3.000
TOMATO VIGOR 1-5SCALE ([5]; 17/Aug/05, DRIP 400 lb ai/a, no herbicide): 3.000
TOMATO VIGOR 1-5SCALE ([5]; 17/Aug/05, DRIP 400 lb ai/a, with SANDEA 0.25 lb ai/a): 2.750
TOMATO VIGOR 1-5SCALE ([5]; 17/Aug/05, DRIP 400 lb ai/a, with V-10142 0.25 lb ai/a): 3.000
TOMATO VIGOR 1-5SCALE ([5]; 17/Aug/05, DRIP 600 lb ai/a, no herbicide): 1.250
TOMATO VIGOR 1-5SCALE ([5]; 17/Aug/05, DRIP 600 lb ai/a, with SANDEA 0.25 lb ai/a): 1.500
TOMATO VIGOR 1-5SCALE ([5]; 17/Aug/05, DRIP 600 lb ai/a, with V-10142 0.25 lb ai/a): 2.250
TOMATO VIGOR 1-5SCALE ([5]; 17/Aug/05, INJECT 200 lb ai/a, no herbicide, listed as ACROLEIN): 4.250
TOMATO VIGOR 1-5SCALE ([5]; 17/Aug/05, INJECT 200 lb ai/a, no herbicide, listed as acrolein): 4.25
TOMATO VIGOR 1-5SCALE ([5]; 17/Aug/05, INJECT 200 lb ai/a, with SANDEA 0.25 lb ai/a): 4.000
TOMATO VIGOR 1-5SCALE ([5]; 17/Aug/05, INJECT 200 lb ai/a, with V-10142 0.25 lb ai/a): 4.000
TOMATO VIGOR 1-5SCALE ([5]; 17/Aug/05, INJECT 400 lb ai/a, no herbicide, listed as ACROLEIN): 4.000
TOMATO VIGOR 1-5SCALE ([5]; 17/Aug/05, INJECT 400 lb ai/a, no herbicide, listed as acrolein): 4.0
TOMATO VIGOR 1-5SCALE ([5]; 17/Aug/05, INJECT 400 lb ai/a, with SANDEA 0.25 lb ai/a): 3.000
TOMATO VIGOR 1-5SCALE ([5]; 17/Aug/05, INJECT 400 lb ai/a, with V-10142 0.25 lb ai/a): 4.000
TOMATO VIGOR 1-5SCALE ([5]; 17/Aug/05, INJECT 600 lb ai/a, no herbicide): 3.250
TOMATO VIGOR 1-5SCALE ([5]; 17/Aug/05, INJECT 600 lb ai/a, with SANDEA 0.25 lb ai/a): 3.250
TOMATO VIGOR 1-5SCALE ([5]; 17/Aug/05, INJECT 600 lb ai/a, with V-10142 0.25 lb ai/a): 3.250
TOMATO VIGOR 1-5SCALE ([5]; 25/Aug/05, DRIP 200 lb ai/a, no herbicide): 4.000
TOMATO VIGOR 1-5SCALE ([5]; 25/Aug/05, DRIP 200 lb ai/a, with SANDEA 0.25 lb ai/a): 3.750
TOMATO VIGOR 1-5SCALE ([5]; 25/Aug/05, DRIP 200 lb ai/a, with V-10142 0.25 lb ai/a): 3.850
TOMATO VIGOR 1-5SCALE ([5]; 25/Aug/05, DRIP 400 lb ai/a, no herbicide): 3.250
TOMATO VIGOR 1-5SCALE ([5]; 25/Aug/05, DRIP 400 lb ai/a, with SANDEA 0.25 lb ai/a): 3.500
TOMATO VIGOR 1-5SCALE ([5]; 25/Aug/05, DRIP 400 lb ai/a, with V-10142 0.25 lb ai/a): 3.250
TOMATO VIGOR 1-5SCALE ([5]; 25/Aug/05, DRIP 600 lb ai/a, no herbicide): 2.500
TOMATO VIGOR 1-5SCALE ([5]; 25/Aug/05, DRIP 600 lb ai/a, with SANDEA 0.25 lb ai/a): 2.500
TOMATO VIGOR 1-5SCALE ([5]; 25/Aug/05, DRIP 600 lb ai/a, with V-10142 0.25 lb ai/a): 2.900
TOMATO VIGOR 1-5SCALE ([5]; 25/Aug/05, INJECT 200 lb ai/a, no herbicide, listed as ACROLEIN): 4.750
TOMATO VIGOR 1-5SCALE ([5]; 25/Aug/05, INJECT 200 lb ai/a, no herbicide, listed as acrolein): 4.75
TOMATO VIGOR 1-5SCALE ([5]; 25/Aug/05, INJECT 200 lb ai/a, with SANDEA 0.25 lb ai/a): 4.750
TOMATO VIGOR 1-5SCALE ([5]; 25/Aug/05, INJECT 200 lb ai/a, with V-10142 0.25 lb ai/a): 4.750
TOMATO VIGOR 1-5SCALE ([5]; 25/Aug/05, INJECT 400 lb ai/a, no herbicide, listed as ACROLEIN): 5.000
TOMATO VIGOR 1-5SCALE ([5]; 25/Aug/05, INJECT 400 lb ai/a, no herbicide, listed as acrolein): 5.0
TOMATO VIGOR 1-5SCALE ([5]; 25/Aug/05, INJECT 400 lb ai/a, with SANDEA 0.25 lb ai/a): 4.250
TOMATO VIGOR 1-5SCALE ([5]; 25/Aug/05, INJECT 400 lb ai/a, with V-10142 0.25 lb ai/a): 4.650
TOMATO VIGOR 1-5SCALE ([5]; 25/Aug/05, INJECT 600 lb ai/a, no herbicide): 4.250
TOMATO VIGOR 1-5SCALE ([5]; 25/Aug/05, INJECT 600 lb ai/a, with SANDEA 0.25 lb ai/a): 4.000
TOMATO VIGOR 1-5SCALE ([5]; 25/Aug/05, INJECT 600 lb ai/a, with V-10142 0.25 lb ai/a): 3.750
